PubChem BioAssay (NCI)
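Test compounds were applied to cells in 96-well plates for 48 hours at 5 doses. The concentration for 50% growth inhibition is given as GI50. TGI is the concentration that stops growth completely.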

Assays:
Experiment in all cases: NCI-60 cell line screen, 48 h
786-0 renal = tested on: 786-0 renal
A549 NSCLC = tested on: A549 NSCLC
ACHN renal = tested on: ACHN renal
CCRF-CEM leukemia = tested on: CCRF-CEM leukemia
COLO 205 colon = tested on: COLO 205 colon
DU-145 prostate = tested on: DU-145 prostate
EKVX NSCLC = tested on: EKVX NSCLC
HCT-116 colon = tested on: HCT-116 colon
HCT-15 colon = tested on: HCT-15 colon
HS 578T breast = tested on: HS 578T breast
HT29 colon = tested on: HT29 colon
IGROV1 ovarian = tested on: IGROV1 ovarian
K-562 leukemia = tested on: K-562 leukemia
KM12 colon = tested on: KM12 colon
M14 melanoma = tested on: M14 melanoma
MCF7 breast = tested on: MCF7 breast
MDA-MB-435 = tested on: MDA-MB-435
MOLT-4 leukemia = tested on: MOLT-4 leukemia
NCI-H23 lung = tested on: NCI-H23 lung
NCI-H460 lung = tested on: NCI-H460 lung
NCI-H522 lung = tested on: NCI-H522 lung
NCI/ADR-RES ovarian = tested on: NCI/ADR-RES ovarian
OVCAR-3 ovarian = tested on: OVCAR-3 ovarian
OVCAR-5 ovarian = tested on: OVCAR-5 ovarian
OVCAR-8 ovarian = tested on: OVCAR-8 ovarian
PC-3 prostate = tested on: PC-3 prostate
RPMI-8226 leukemia = tested on: RPMI-8226 leukemia
SF-268 CNS = tested on: SF-268 CNS
SF-295 CNS = tested on: SF-295 CNS
SF-539 CNS = tested on: SF-539 CNS
SK-MEL-2 melanoma = tested on: SK-MEL-2 melanoma
SK-MEL-28 melanoma = tested on: SK-MEL-28 melanoma
SN12C renal = tested on: SN12C renal
SNB-19 CNS = tested on: SNB-19 CNS
SNB-75 CNS = tested on: SNB-75 CNS
SR leukemia = tested on: SR leukemia
T-47D breast = tested on: T-47D breast
UACC-257 melanoma = tested on: UACC-257 melanoma
UACC-62 melanoma = tested on: UACC-62 melanoma
UO-31 renal = tested on: UO-31 renal
A498 renal = tested on: A498 renal
BT-549 breast = tested on: BT-549 breast
CAKI-1 renal = tested on: CAKI-1 renal
HCC-2998 colon = tested on: HCC-2998 colon
HL-60(TB) leukemia = tested on: HL-60(TB) leukemia
HOP-62 NSCLC = tested on: HOP-62 NSCLC
HOP-92 NSCLC = tested on: HOP-92 NSCLC
LOX IMVI melanoma = tested on: LOX IMVI melanoma
MALME-3M melanoma = tested on: MALME-3M melanoma
MDA-MB-231 breast = tested on: MDA-MB-231 breast
NCI-H226 lung = tested on: NCI-H226 lung
OVCAR-4 ovarian = tested on: OVCAR-4 ovarian
RXF 393 renal = tested on: RXF 393 renal
SK-MEL-5 melanoma = tested on: SK-MEL-5 melanoma
SK-OV-3 ovarian = tested on: SK-OV-3 ovarian
SW-620 colon = tested on: SW-620 colon
TK-10 renal = tested on: TK-10 renal
U251 CNS = tested on: U251 CNS

Compound: CCn1ncc2c1nc(-c1ccccc1)c[n+]2[O-]
- TGI (786-0 renal): > 100000 nM
- TGI (A549 NSCLC): > 100000 nM
- TGI (ACHN renal): > 100000 nM
- TGI (CCRF-CEM leukemia): > 100000 nM
- TGI (COLO 205 colon): > 100000 nM
- TGI (DU-145 prostate): > 100000 nM
- TGI (EKVX NSCLC): > 100000 nM
- TGI (HCT-116 colon): > 100000 nM
- TGI (HCT-15 colon): > 100000 nM
- TGI (HS 578T breast): > 100000 nM
- TGI (HT29 colon): > 100000 nM
- TGI (IGROV1 ovarian): > 100000 nM
- TGI (K-562 leukemia): > 100000 nM
- TGI (KM12 colon): > 100000 nM
- TGI (M14 melanoma): > 100000 nM
- TGI (MCF7 breast): > 100000 nM
- TGI (MDA-MB-435): > 100000 nM
- TGI (MOLT-4 leukemia): > 100000 nM
- TGI (NCI-H23 lung): > 100000 nM
- TGI (NCI-H460 lung): > 100000 nM
- TGI (NCI-H522 lung): > 100000 nM
- TGI (NCI/ADR-RES ovarian): > 100000 nM
- TGI (OVCAR-3 ovarian): > 100000 nM
- TGI (OVCAR-5 ovarian): > 100000 nM
- TGI (OVCAR-8 ovarian): > 100000 nM
- TGI (PC-3 prostate): > 100000 nM
- TGI (RPMI-8226 leukemia): > 100000 nM
- TGI (SF-268 CNS): > 100000 nM
- TGI (SF-295 CNS): > 100000 nM
- TGI (SF-539 CNS): > 100000 nM
- TGI (SK-MEL-2 melanoma): > 100000 nM
- TGI (SK-MEL-28 melanoma): > 100000 nM
- TGI (SN12C renal): > 100000 nM
- TGI (SNB-19 CNS): > 100000 nM
- TGI (SNB-75 CNS): > 100000 nM
- TGI (SR leukemia): > 100000 nM
- TGI (T-47D breast): > 100000 nM
- TGI (UACC-257 melanoma): > 100000 nM
- TGI (UACC-62 melanoma): > 100000 nM
- TGI (UO-31 renal): > 100000 nM

Compound: COc1cccc(Cn2c(-c3nonc3N)nc3ccccc32)c1
- GI50 (786-0 renal): 569 nM
- TGI (786-0 renal): > 100000 nM
- GI50 (A498 renal): 53.2 nM
- TGI (A498 renal): 696 nM
- GI50 (A549 NSCLC): 625 nM
- TGI (A549 NSCLC): > 100000 nM
- GI50 (ACHN renal): 612 nM
- TGI (ACHN renal): > 100000 nM
- GI50 (BT-549 breast): 365 nM
- TGI (BT-549 breast): 68500 nM
- GI50 (CAKI-1 renal): 404 nM
- TGI (CAKI-1 renal): > 100000 nM
- GI50 (CCRF-CEM leukemia): 348 nM
- TGI (CCRF-CEM leukemia): > 100000 nM
- GI50 (COLO 205 colon): 393 nM
- TGI (COLO 205 colon): 10100 nM
- GI50 (DU-145 prostate): 591 nM
- TGI (DU-145 prostate): > 100000 nM
- GI50 (HCC-2998 colon): 1470 nM
- TGI (HCC-2998 colon): > 100000 nM
- GI50 (HCT-116 colon): 461 nM
- TGI (HCT-116 colon): > 100000 nM
- GI50 (HCT-15 colon): 399 nM
- TGI (HCT-15 colon): > 100000 nM
- GI50 (HL-60(TB) leukemia): 298 nM
- TGI (HL-60(TB) leukemia): 13800 nM
- GI50 (HOP-62 NSCLC): 511 nM
- TGI (HOP-62 NSCLC): 48300 nM
- GI50 (HOP-92 NSCLC): 344 nM
- TGI (HOP-92 NSCLC): 16400 nM
- GI50 (HT29 colon): 345 nM
- GI50 (IGROV1 ovarian): 624 nM
- TGI (IGROV1 ovarian): > 75600 nM
- GI50 (K-562 leukemia): 355 nM
- TGI (K-562 leukemia): > 100000 nM
- GI50 (KM12 colon): 515 nM
- TGI (KM12 colon): > 100000 nM
- GI50 (LOX IMVI melanoma): 547 nM
- TGI (LOX IMVI melanoma): > 100000 nM
- GI50 (M14 melanoma): 532 nM
- TGI (M14 melanoma): > 100000 nM
- GI50 (MALME-3M melanoma): 425 nM
- TGI (MALME-3M melanoma): > 95100 nM
- GI50 (MCF7 breast): 383 nM
- TGI (MCF7 breast): > 100000 nM
- GI50 (MDA-MB-231 breast): 879 nM
- TGI (MDA-MB-231 breast): > 100000 nM
- GI50 (MDA-MB-435): 201 nM
- TGI (MDA-MB-435): 549 nM
- GI50 (MOLT-4 leukemia): 632 nM
- TGI (MOLT-4 leukemia): > 100000 nM
- GI50 (NCI-H226 lung): 1160 nM
- TGI (NCI-H226 lung): > 22000 nM
- GI50 (NCI-H23 lung): 717 nM
- TGI (NCI-H23 lung): > 100000 nM
- GI50 (NCI-H460 lung): 378 nM
- TGI (NCI-H460 lung): > 34600 nM
- GI50 (NCI-H522 lung): 245 nM
- TGI (NCI-H522 lung): 688 nM
- GI50 (NCI/ADR-RES ovarian): 396 nM
- GI50 (OVCAR-3 ovarian): 354 nM
- TGI (OVCAR-3 ovarian): 3620 nM
- GI50 (OVCAR-4 ovarian): 2260 nM
- TGI (OVCAR-4 ovarian): > 65900 nM
- GI50 (OVCAR-5 ovarian): 1170 nM
- TGI (OVCAR-5 ovarian): > 68000 nM
- GI50 (OVCAR-8 ovarian): 610 nM
- TGI (OVCAR-8 ovarian): > 100000 nM
- GI50 (PC-3 prostate): 435 nM
- TGI (PC-3 prostate): > 84200 nM
- GI50 (RPMI-8226 leukemia): 377 nM
- TGI (RPMI-8226 leukemia): > 100000 nM
- GI50 (RXF 393 renal): 244 nM
- TGI (RXF 393 renal): 675 nM
- GI50 (SF-268 CNS): 844 nM
- TGI (SF-268 CNS): > 100000 nM
- GI50 (SF-295 CNS): 307 nM
- GI50 (SF-539 CNS): 237 nM
- TGI (SF-539 CNS): 696 nM
- GI50 (SK-MEL-2 melanoma): 353 nM
- TGI (SK-MEL-2 melanoma): 15400 nM
- GI50 (SK-MEL-28 melanoma): 781 nM
- TGI (SK-MEL-28 melanoma): > 91800 nM
- GI50 (SK-MEL-5 melanoma): 375 nM
- TGI (SK-MEL-5 melanoma): > 70500 nM
- GI50 (SK-OV-3 ovarian): 414 nM
- TGI (SK-OV-3 ovarian): 25900 nM
- GI50 (SN12C renal): 751 nM
- TGI (SN12C renal): > 100000 nM
- GI50 (SNB-19 CNS): 907 nM
- TGI (SNB-19 CNS): > 100000 nM
- GI50 (SNB-75 CNS): 225 nM
- TGI (SNB-75 CNS): 2020 nM
- GI50 (SR leukemia): 310 nM
- TGI (SR leukemia): > 100000 nM
- GI50 (SW-620 colon): 372 nM
- TGI (SW-620 colon): > 100000 nM
- GI50 (T-47D breast): 475 nM
- TGI (T-47D breast): > 100000 nM
- GI50 (TK-10 renal): 728 nM
- TGI (TK-10 renal): 52400 nM
- GI50 (U251 CNS): 436 nM
- TGI (U251 CNS): > 92200 nM
- GI50 (UACC-257 melanoma): 314 nM
- TGI (UACC-257 melanoma): > 100000 nM
- GI50 (UACC-62 melanoma): 493 nM
- TGI (UACC-62 melanoma): > 100000 nM
- GI50 (UO-31 renal): 632 nM
- TGI (UO-31 renal): > 100000 nM
